{"source": "patent US6921532B1", "about": "“Biological Bioadhesive composition and methods of preparation and use” (Spinal Restoration, Inc., priority 2000, dated 2005)", "test": "Solubility / suspension in thrombin reconstituting solution", "conditions": "aqueous calcium chloride reconstituting solution", "description": "Blended betamethasone sodium phosphate and acetate solutions preferably include anti-caking agent(s) and low calcium chloride concentration(s)."}
{"smiles": "C[C@H]1C[C@H]2[C@@H]3CCC4=CC(=O)C=C[C@]4(C)[C@@]3(F)[C@@H](O)C[C@]2(C)[C@@]1(O)C(=O)COP(=O)([O-])[O-].[Na+].[Na+]", "note": "[betamethasone sodium phosphate]", "values": [{"measurement": "solubility", "result": "reduced in the presence of aqueous calcium chloride"}]}
